Patent US5994336A, “Method of inhibiting proliferation of cells by administering an aminosterol compound” (priority 1995, dated 1999)

Columns and labels:
[1] = tested on: capillaries of the chorioallantoic membrane; assay: Inhibition of capillary growth in chorioallantoic membrane (CAM) model; format: in vivo, chick
Description: The growing capillaries within the chorioallantoic membrane model (CAM model) have been used as a system in which to evaluate the effect of agents on their potential to inhibit new vessel growth. Neovascularization occurs most aggressively over the first week of embryonic development. Thereafter capillary growth is characterized by principally "elongation" rather than "de novo" formation.
In the standard assay, agents are applied locally to a region of the embryo over which neovascularization will occur. Agents are assessed by their ability to inhibit this process, as evaluated by visual examination about 7 days after application. […] The assay utilized is described in detail in Auerbach et al., Pharm. Ther. 51, 1991, 1-11.

[2] = tested on: human foreskin fibroblasts; assay: Growth inhibition in vitro (absorbance at 600 nm); format: cell-based; conditions: 10 μg/ml; FIG. 3C
[3] = tested on: bacteria, fungi and protozoa; conditions: cited from earlier work
[4] = tested on: PHA-stimulated human lymphocytes; assay: Inhibition of mitogen (PHA)-stimulated growth of human T-cells; format: cell-based
Description: Results are tabulated below.

[5] = tested on: human epithelial cell line MCF 10A; assay: Growth inhibition in vitro (absorbance at 600 nm); format: cell-based; conditions: 10 μg/ml; FIG. 3B
[6] = tested on: VX2 carcinoma-induced corneal neovascularization; assay: Suppression of tumor-induced corneal neovascularization in rabbits; format: in vivo, rabbit; conditions: ELVAX 40 P pellet, day 21
Description: The implantation of VX2 carcinoma into the rabbit cornea results in the induction of new blood vessels within several days (Tamargo et al., Cancer Research 51, 1991, 672-675). It is believed that this carcinoma secretes growth factors that stimulate new blood-vessel growth. Thus, this model is indicative in vivo evidence of therapeutic utility in the treatment of pathological disorders of vascularization, including the metastatic spread of tumors, diabetic retinopathy, macular degeneration, and rheumatoid arthritis.
This experiment followed the published protocol--tumor was implanted adjacent to a polymer containing a concentration of the agent to be evaluated. The polymer releases the agent slowly in the immediate neighborhood of the tumor, providing sustained high local concentrations of the agent. In this experiment, squalamine introduced into a pellet of ELVAX 40 P (DuPont, Wilmington, Del.) inhibited new blood vessel formation by about 60% at days 7 and 14, and by about 25% at day 21.

[7] = tested on: bovine pulmonary endothelial cells; assay: Growth inhibition in vitro (absorbance at 600 nm); format: cell-based; conditions: 1 μg/ml; FIG. 3A
vitelline capillaries = assay: Chick embryo vitelline capillary regression assay; format: in vivo; design: key to vascular reactivity: +: Vascular reactivity; 0: No vascular reactivity; +/-: Equivocal reactivity; conditions: for vascular reactivity: 60 minutes
Protocol: Using the chick embryo vitelline capillaries assay, compounds were tested for their ability to induce capillary regression. Each compound was applied in 0.1 ml of 15% Ficol 400 and PBS onto the embryo, and vascular regression was assessed after 60 minutes.
The 3-day chick embryo consists of an embryonic disc from which numerous vessels emerge and return, forming a "FIG. 8"-shaped structure--the embryo in the center with vascular loops extending outward over both poles. […] Following a lag period of around 15 minutes, the constriction of continuity between capillary and secondary vessels, generally on the "venous" side, was observed. Continued pulsatile blood flow progressed, resulting in a "swelling" of the blind tube, followed by a pinching off of the remaining connection and formation of an enclosed vascular sac resembling a "blood island." This process progressed until only the largest vessels remained intact.

rabbit NHE1 = assay: NHE1 inhibition, internal pH (BCECF-AM) in transfected PS120 fibroblasts; format: cell-based; conditions: 5 μg/ml; FIG. 2A
Protocol: (§1) PS120 fibroblasts transfected with rabbit or human NHE1 were grown as described above.

human NHE1 = assay: as above; format: cell-based; conditions: 5 μg/ml; FIG. 2B
Protocol: as §1

[8] = tested on: human coronary artery smooth muscle; assay: Proliferation of human coronary artery smooth muscle in vitro; format: cell-based; conditions: FIG. 15
Description: Aminosterols of the invention may also have utility in inhibiting the growth factor mediated proliferation of smooth muscle within the artery. Following coronary angioplasty, reocclusion commonly occurs, secondary to reparative proliferation of the vascular smooth muscle within the wall of the surgically manipulated blood vessel. This process generally takes place over the course of 7-10 days. To evaluate whether an agent could prevent the growth factor mediated proliferation of smooth muscle within the artery, compound 1436 was evaluated in vitro for its effect on the proliferation of human coronary artery smooth muscle. Results for compound 1436 are shown in FIG. 13, and those for squalamine are shown in FIG. 14, with FIG. 15 being a composite logarithmic plot.

B16 = assay: Cytostatic activity against B16 in culture; format: cell-based, murine; conditions: except at very high concentrations
B16 melanoma = assay: Synergistic inhibition of tumor growth, B16 melanoma model; format: in vivo, mouse; conditions: squalamine alone
Protocol: Based on the idea that tumor growth involves both the clonal expansion of a malignant cell along with the development of a supporting vascular supply, a combination of compound 1436 with squalamine was tested to determine whether it would achieve a synergistic effect on solid tumor growth. This concept was evaluated in the B16 melanoma model.
Animals were implanted with B16 melanoma followed by treatment with compound 1436 or 1256 administered in a combined schedule or separately. […] Thus, a combination of these two compounds achieves a therapeutic benefit in tumors dependent on neovascularization that may prevent metastatic spread.

rabbit NHE3 = biological target: T1, rabbit NHE3 (Oryctolagus cuniculus, UniProt P26432); format: cell-based
T1 construct: BCECF internal pH recovery
T1 sequence (P26432 30-832): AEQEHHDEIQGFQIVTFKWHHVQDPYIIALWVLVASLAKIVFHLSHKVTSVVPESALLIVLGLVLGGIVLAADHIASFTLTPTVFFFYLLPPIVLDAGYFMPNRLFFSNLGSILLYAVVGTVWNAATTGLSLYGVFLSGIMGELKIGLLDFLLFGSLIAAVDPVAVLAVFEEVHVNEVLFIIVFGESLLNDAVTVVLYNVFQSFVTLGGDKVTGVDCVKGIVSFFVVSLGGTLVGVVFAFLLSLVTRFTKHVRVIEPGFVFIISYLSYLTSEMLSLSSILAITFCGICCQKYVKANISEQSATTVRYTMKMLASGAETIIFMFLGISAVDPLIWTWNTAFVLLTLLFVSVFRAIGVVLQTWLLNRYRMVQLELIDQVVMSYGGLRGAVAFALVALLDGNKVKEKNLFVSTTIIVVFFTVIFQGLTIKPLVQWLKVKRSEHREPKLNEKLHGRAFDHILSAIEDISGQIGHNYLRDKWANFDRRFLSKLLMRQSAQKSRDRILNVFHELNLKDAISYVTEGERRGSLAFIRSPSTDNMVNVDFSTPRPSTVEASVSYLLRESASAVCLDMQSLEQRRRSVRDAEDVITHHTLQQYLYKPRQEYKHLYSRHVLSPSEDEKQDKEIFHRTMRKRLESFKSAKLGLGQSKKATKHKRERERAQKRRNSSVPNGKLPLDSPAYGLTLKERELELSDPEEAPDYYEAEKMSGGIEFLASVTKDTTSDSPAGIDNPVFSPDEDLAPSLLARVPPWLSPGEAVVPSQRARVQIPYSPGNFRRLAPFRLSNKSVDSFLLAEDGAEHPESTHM

[9] = tested on: human umbilical venous endothelial cells; assay: LPS-induced neutrophil adherence; format: cell-based; conditions: squalamine 10 μg, 1.0 μg or 0.1 μg
Description: Methods 109, 1988, 175-184.

[10] = tested on: human microvascular cells; assay: Inhibition of endothelial cell cord formation in vitro; format: cell-based; conditions: words
Description: Endothelial cells have the capacity in vitro to form tubular aggregates resembling capillaries in various early stages of formation. This conversion occurs under relatively specific conditions, in which essential growth factors along with an effective substratum are provided. It has been shown that both the interaction of growth factors with the endothelial cell and its attachment to a substratum activate the NHE. The activation of this exchanger is believed to be required for subsequent morphologic transformation of the endothelial cell into a multicellular tubular structure.
To assess the effect of compounds on the cord-like structures formed by human microvascular cells when plated in the presence of VEGF (Vascular Endothelial Growth Factor) and basic fibroblast growth factor on a collagen matrix, a standard cord formation assay was used.

SMILES: CC(C)[C@@H](CC[C@@H](C)[C@H]1CC[C@H]2[C@@H]3[C@H](O)C[C@H]4C[C@@H](NCCCNCCCCN)CC[C@]4(C)[C@H]3CC[C@]12C)OS(=O)(=O)O [squalamine]
- inhibition of CAM vessel neovascularization ([1]; 3-day CAM, 0.65 μg): inhibition of CAM vessel neovascularization
- vascular irritation ([1]; 3-day embryo, 20 and 40 μg (values marked *)): Some vascular irritation noted
- Percentage positive (positive/total) ([1]; 13-day embryo, 5.0 μg applied): 0/26
- inhibition of CAM capillary growth ([1]; 13-day old chick, ten times 0.65 μg): no inhibitory effect
- growth of fibroblast line [2]: no effect
- antibiotic spectrum [3]: broad-spectrum antibiotic, killing bacteria, fungi and protozoa
- inhibition of blast transformation [4]: Some effect
- growth of epithelial line [5]: no effect
- inhibition of new blood vessel formation [6]: about 25%
- growth of bovine pulmonary endothelial cells [7]: inhibited the growth
- activity on vitelline capillaries (vitelline capillaries): especially active
- vascular reactivity (vitelline capillaries; 0.001 μg applied): 0
- vascular reactivity (vitelline capillaries; 0.01 μg applied): +
- vascular reactivity (vitelline capillaries; 0.1 μg applied): +
- vascular reactivity (vitelline capillaries; 1 μg applied): +
- vascular reactivity (vitelline capillaries; 10 μg applied): +
- disruption of vitelline capillaries (vitelline capillaries; 3- to 5-day chick embryos): found to disrupt vitelline capillaries
- lag period before capillary constriction (vitelline capillaries; 3-day chick embryo): around 15 minutes
- hemolysis (vitelline capillaries; chick embryo, microscopic observation): absence of hemolysis
- inhibitory activity against rabbit NHE1 (rabbit NHE1): no inhibitory activity
- inhibitory activity against human NHE1 (human NHE1): no inhibitory activity
- suppression of growth in vitro [8]: suppress in vitro the growth of human coronary artery smooth muscle
- cytostatic activity against B16 in culture (B16): minimal cytostatic activity
- impact on tumor volume (B16 melanoma; 5 mg/kg/day, FIG. 12): no significant impact on tumor volume
- effect compared with combination (B16 melanoma; 15 mg/kg/day): Neither administration of squalamine at 15 mg/kg/day nor compound 1436 alone in a tolerable schedule could achieve this effect
- resting internal pH (rabbit NHE3; 5 μg/ml, cells not acid-preloaded, FIG. 1B): the resting pH of these cells was also inhibited
- inhibition of NHE3, effect on Km and Vmax (rabbit NHE3; squalamine 5 μg/ml, FIGS. 1A, 1B): inhibited NHE3 with respect to proton concentration at both Km and Vmax levels
- inactivation of exchanger compared with amiloride (rabbit NHE3; words): more profoundly inactivated by squalamine than by amiloride
- specificity NHE3 over NHE1 (rabbit NHE3; words): specificity for NHE3 over NHE1
- inhibition of neutrophil adherence [9]: no inhibition
- effect on cell viability or proliferation at cord-inhibiting concentrations [10]: does not appear to profoundly affect cell viability or proliferation
